Tests used:
[1] = biological target: T1, human N-type Ca channel (Homo sapiens, UniProt Q00975); assay: Calcium influx assay (FDSS), KCl depolarization, Fluo8 dye; type: cell-based; design: host or cells: HEK 293; settings: HEK 293 cells expressing human N-type Ca channel; 100 mM KCl; read-out: N Type IC50 Data FDSS
Method: All cell culture reagents were procured from HyClone and other reagents were from Fisher. Recombinant HEK 293 cells expressing human N-type Ca channel (Millipore) were maintained in DMEM F12 containing 10% FBS and selection antibiotics at 37 °C in 5% CO2.
Cells were incubated at 30 °C in 5% CO2 overnight. The medium was removed and cells were loaded with Fluo8 dye (AAT Bioquest) at 37 °C and 30 °C, 30 min each in darkness. Cells were washed four times with wash buffer (16 mM Herep pH 7.2, 2 mM CaCl2, 1 mM MgCl2, 5 mM glucose, 140 mM choline chloride and 2 mM KCl) leaving 15 µL buffer after the last wash. Compounds of Formula (I), serially diluted, were added to the cell plate. The plates were incubated in darkness for 15 min. Cells were depolarized with 100 mM KCl and Ca influx was measured.

[2] = biological target: T1, human N-type Ca channel; assay: Electrophysiological response, QPatch (depolarization -80 mV to +20 mV)
Method: The recombinant cell line described above was used in the measurement of electrophysiological properties with QPatch (Sophion). Cells were maintained in culture as mentioned above. Prior to the experiment, the flasks were moved to 30 °C and incubated for 48-72 hrs. On the day of assaying, cells were detached and harvested. The cell pellet was re-suspended in SMF4HEK (HyClone)/25mM HEPS at 2-5 million/ mL and placed on the QStirrer of the QPatch for 30-60 min prior to the start of the assay. […] Microtiter-Plate/Reference Buffer contained 140 mM TEA-Cl, 10mM BaCl2, 0.8 mM MgCl2, 10 mM HEPES pH ∼7.4 adjusted with TEA-OH/HCl, and ∼300mOsm. Cells were transferred to a QPatch 48 plate and gigaseal was formed. The plate was perfused with intracellular and extracellular buffer. […] In brief, cells were depolarized from resting potential of -80 mV to +20 mV and current was recorded. Data was plotted as percent inhibition vs concentration of the compound and IC50 values were generated using Graphpad Prism non-linear regression analysis.

[3] = N Type IC50 Data Qpatch Pulse=15, Pulse=15, concentration range 0.3-10 µM
[4] = N Type IC50 Data Qpatch Pulse=1, Pulse=1, concentration range 0.3-10 µM

T1 sequence (Q00975 whole entry): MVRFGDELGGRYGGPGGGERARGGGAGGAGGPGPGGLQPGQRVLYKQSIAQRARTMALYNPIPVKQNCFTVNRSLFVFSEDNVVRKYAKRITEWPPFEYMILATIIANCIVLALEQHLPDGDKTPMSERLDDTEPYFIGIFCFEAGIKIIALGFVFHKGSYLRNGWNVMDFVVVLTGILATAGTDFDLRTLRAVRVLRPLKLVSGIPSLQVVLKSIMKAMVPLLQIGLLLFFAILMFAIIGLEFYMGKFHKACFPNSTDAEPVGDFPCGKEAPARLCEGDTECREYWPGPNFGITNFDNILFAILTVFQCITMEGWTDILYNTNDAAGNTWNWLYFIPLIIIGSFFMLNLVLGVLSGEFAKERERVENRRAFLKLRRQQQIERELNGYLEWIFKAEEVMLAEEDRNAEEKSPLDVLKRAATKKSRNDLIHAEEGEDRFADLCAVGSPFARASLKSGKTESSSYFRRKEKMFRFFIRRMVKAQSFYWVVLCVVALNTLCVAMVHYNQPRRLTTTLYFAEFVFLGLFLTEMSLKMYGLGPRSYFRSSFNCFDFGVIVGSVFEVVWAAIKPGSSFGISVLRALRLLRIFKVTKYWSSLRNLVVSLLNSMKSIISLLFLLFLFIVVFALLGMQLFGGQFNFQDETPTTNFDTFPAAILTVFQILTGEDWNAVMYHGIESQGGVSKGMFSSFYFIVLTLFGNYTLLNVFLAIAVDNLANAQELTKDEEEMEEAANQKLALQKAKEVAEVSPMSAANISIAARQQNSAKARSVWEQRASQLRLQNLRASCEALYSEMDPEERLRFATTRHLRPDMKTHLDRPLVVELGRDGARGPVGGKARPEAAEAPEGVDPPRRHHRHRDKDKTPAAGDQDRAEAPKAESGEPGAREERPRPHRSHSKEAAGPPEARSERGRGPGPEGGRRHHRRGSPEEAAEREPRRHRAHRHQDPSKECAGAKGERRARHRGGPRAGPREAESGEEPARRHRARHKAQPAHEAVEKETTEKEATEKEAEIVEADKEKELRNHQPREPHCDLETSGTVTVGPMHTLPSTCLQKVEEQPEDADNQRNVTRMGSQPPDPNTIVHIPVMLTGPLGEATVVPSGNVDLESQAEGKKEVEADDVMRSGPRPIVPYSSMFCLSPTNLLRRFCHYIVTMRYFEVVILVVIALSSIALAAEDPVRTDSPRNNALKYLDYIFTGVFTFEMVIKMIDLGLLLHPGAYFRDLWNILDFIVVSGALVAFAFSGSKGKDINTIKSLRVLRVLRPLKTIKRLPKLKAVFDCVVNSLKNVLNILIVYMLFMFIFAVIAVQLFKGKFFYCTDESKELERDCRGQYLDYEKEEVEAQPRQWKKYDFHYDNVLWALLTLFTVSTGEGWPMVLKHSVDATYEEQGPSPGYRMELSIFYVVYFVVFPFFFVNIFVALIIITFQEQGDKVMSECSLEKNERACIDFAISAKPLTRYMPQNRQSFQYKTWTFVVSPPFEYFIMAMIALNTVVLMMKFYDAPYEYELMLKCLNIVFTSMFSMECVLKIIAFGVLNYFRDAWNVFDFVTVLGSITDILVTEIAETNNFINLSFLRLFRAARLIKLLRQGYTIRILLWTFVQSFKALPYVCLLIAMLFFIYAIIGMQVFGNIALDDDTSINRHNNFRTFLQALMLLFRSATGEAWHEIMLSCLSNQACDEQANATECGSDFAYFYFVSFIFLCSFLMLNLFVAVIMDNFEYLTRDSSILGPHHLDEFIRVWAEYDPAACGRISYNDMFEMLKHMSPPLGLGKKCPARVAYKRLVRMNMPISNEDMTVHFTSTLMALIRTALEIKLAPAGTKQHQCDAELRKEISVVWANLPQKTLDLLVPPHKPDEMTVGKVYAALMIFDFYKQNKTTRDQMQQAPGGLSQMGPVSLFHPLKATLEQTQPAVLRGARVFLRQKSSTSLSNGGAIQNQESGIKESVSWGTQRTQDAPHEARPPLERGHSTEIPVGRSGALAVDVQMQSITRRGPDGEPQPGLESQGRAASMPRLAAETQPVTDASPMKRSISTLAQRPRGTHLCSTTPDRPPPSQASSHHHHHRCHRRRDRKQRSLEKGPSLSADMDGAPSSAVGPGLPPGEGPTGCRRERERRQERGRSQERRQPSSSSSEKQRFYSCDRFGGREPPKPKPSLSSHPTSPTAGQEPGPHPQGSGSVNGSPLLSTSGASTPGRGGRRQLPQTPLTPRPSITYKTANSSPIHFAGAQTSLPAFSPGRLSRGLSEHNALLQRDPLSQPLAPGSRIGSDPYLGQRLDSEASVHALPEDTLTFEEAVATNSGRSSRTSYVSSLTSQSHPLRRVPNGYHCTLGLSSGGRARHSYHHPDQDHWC
T1 sequence (P54284 whole entry partner): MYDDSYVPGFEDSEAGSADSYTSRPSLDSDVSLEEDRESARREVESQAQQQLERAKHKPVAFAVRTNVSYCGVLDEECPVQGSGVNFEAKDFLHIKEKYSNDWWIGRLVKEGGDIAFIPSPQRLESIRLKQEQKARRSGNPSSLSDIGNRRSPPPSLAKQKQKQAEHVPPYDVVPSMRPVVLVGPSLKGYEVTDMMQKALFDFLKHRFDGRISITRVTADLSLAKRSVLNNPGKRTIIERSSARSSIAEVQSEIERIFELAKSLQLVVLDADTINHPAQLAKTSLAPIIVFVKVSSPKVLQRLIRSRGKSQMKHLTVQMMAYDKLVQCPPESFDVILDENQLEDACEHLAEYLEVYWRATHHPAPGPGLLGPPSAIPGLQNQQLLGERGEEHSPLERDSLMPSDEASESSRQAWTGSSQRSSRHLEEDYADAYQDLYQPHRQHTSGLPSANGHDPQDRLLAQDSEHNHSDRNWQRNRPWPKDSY
T1 sequence (P54289 25-956 partner limits assumed): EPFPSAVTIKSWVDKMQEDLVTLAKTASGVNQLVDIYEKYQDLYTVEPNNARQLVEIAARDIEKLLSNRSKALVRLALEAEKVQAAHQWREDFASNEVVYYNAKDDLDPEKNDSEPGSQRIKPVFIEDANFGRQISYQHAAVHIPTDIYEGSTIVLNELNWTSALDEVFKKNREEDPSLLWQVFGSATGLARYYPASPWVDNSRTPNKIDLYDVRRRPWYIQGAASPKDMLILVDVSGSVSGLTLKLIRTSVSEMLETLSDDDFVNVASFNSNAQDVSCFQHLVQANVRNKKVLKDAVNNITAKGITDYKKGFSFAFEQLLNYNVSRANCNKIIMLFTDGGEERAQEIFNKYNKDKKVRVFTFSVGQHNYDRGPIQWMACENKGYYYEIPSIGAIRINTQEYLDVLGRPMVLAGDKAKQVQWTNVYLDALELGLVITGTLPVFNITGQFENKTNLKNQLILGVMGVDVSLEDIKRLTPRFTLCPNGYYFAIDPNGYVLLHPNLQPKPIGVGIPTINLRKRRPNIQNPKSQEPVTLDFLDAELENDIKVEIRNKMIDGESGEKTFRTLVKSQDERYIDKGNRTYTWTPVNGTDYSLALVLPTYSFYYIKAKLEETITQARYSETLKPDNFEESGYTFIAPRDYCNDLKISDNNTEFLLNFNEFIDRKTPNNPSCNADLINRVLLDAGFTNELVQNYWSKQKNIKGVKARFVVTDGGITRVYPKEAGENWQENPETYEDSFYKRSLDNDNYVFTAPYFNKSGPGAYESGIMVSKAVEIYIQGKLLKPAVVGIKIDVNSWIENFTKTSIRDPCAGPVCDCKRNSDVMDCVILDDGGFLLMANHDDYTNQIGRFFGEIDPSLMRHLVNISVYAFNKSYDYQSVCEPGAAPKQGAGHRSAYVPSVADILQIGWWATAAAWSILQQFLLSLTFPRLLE
T1 sequence (P54289 957-1103 partner limits assumed): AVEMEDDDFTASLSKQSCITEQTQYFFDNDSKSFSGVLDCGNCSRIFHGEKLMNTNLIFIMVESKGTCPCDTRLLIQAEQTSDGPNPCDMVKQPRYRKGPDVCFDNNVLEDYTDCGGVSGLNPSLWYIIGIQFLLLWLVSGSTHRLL

IC50 [1] [nM]	SMILES	other results
128	COc1cnccc1-c1nc(C2CC(C)(C)OC(C)(C)C2)cn1-c1ccc(F)cc1 [Compound 2, 4-(1-(4-fluorophenyl)-4-(2,2,6,6 tetramethyltetrahydro-2H-pyran-4-yl)-1H-imidazol-2-yl)-3-methoxypyridine]	IC50 [2, 3]: 6200 nM
376	CCOc1ccc(-n2cc(C3CC(C)(C)OC(C)(C)C3)nc2-c2ccncc2OC)cc1 [Compound 3, 4-(1-(4-ethoxyphenyl)-4-(2,2,6,6-tetramethyltetrahydro-2H-pyran-4-yl)-1H-imidazol-2-yl)-3-methoxypyridine]	IC50 ([2]; N Type IC50 Data Qpatch Pulse=1, Pulse=1, concentration range 0.01-1 µM): 830 nM; IC50 ([2]; read-out: N Type IC50 Data Qpatch Pulse=15, Pulse=15, concentration range 0.01-1 µM): > 1000 nM
17	COc1ccccc1-c1nc(C2CC(C)(C)OC(C)(C)C2)cn1-c1ccc(F)cc1 [Compound 4, 1-(4-fluorophenyl)-2-(2-methoxyphenyl)-4-(2,2,6,6-tetramethyltetrahydro-2H-pyran-4-yl)-1H-imidazole]	IC50 [2, 3]: 1060 nM
191	COc1ccccc1-c1nc(C2CC(C)(C)OC(C)(C)C2)cn1-c1ccc(C)nc1 [Compound 5, 5-(2-(2-methoxyphenyl)-4-(2,2,6,6-tetramethyltetrahydro-2H-pyran-4-yl)-1H-imidazol-1-yl)-2-methylpyridine]	IC50 [2, 4]: 5900 nM
739	COc1ccccc1-c1nc(C2CC(C)(C)OC(C)(C)C2)cn1-c1ccc(C)cn1 [Compound 6, 2-(2-(2-methoxyphenyl)-4-(2,2,6,6-tetramethyltetrahydro-2H-pyran-4-yl)-1H-imidazol-1-yl)-5-methylpyridine]	
113	COc1ccc(-n2cc(C3CC(C)(C)OC(C)(C)C3)nc2-c2ccccc2OC)cc1 [Compound 7, 2-(2-methoxyphenyl)-1-(4-methoxyphenyl)-4-(2,2,6,6-tetramethyltetrahydro-2H-pyran-4-yl)-1H-imidazole]	IC50 [2, 4]: 1170 nM; IC50 [2, 3]: 680 nM
793	COc1ncccc1-c1nc(C2CC(C)(C)OC(C)(C)C2)cn1Cc1cccc(Cl)c1 [Compound 9, 3-(1-(3-chlorobenzyl)-4-(2,2,6,6-tetramethyltetrahydro-2H-pyran-4-yl)-1H-imidazol-2-yl)-2-methoxypyridine]	
838	COc1cccnc1-c1nc(C2CC(C)(C)OC(C)(C)C2)cn1-c1ccc(F)c(F)c1 [Compound 35, 2-(1-(3,4-difluorophenyl)-4-(2,2,6,6-tetramethyltetrahydro-2H-pyran-4-yl)-1H-imidazol-2-yl)-3-methoxypyridine]	
166	COc1cccnc1-c1nc(C2CC(C)(C)OC(C)(C)C2)cn1-c1ccc(Cl)cc1 [Compound 67, 2-(1-(4-chlorophenyl)-4-(2,2,6,6-tetramethyltetrahydro-2H-pyran-4-yl)-1H-imidazol-2-yl)-3-methoxypyridine]	
10000	COc1ccccc1-c1nc(C2CC(C)(C)OC(C)(C)C2)cn1Cc1cncnc1 [Compound 100, 5-((2-(2-methoxyphenyl) - 4-(2,2,6,6-tetramethyltetrahydro-2H-pyran-4-yl)-1H-imidazol-1-yl)methyl) pyrimidine]	
464	COc1cccnc1-c1nc(C2(O)CC(C)(C)OC(C)(C)C2)cn1-c1ccc(Cl)cc1 [Compound 104, 4-(1-(4-chlorophenyl)-2-(3-methoxypyridin-2-yl)-1H-imidazol-4-yl)-2,2,6,6-tetramethyltetrahydro-2H-pyran-4-ol]	
731	COc1ncccc1-c1nc(C2(O)CC(C)(C)OC(C)(C)C2)cn1-c1ccc(C#N)cc1 [Compound 115, 4-(4-(4-hydroxy-2,2,6,6-tetramethyltetrahydro-2H-pyran-4-yl)-2-(2-methoxypyridin-3-yl)-1H-imidazol-1-yl)benzonitrite]	
	COc1ccccc1-c1nc(C2=CC(C)(C)OC(C)(C)C2)cn1-c1ccc(C#N)c(F)c1 [Compound 126]	inhibition at 10 µM ([2]; read-out: Qpatch Pulse=1 (percent inhibition)): 29%
